Source: patent publication US20190192524A1, “Modulators of Caspase-6” (The University of British Columbia, priority 2014, published 2019)

Tests used:
primary cortical neurons = experiment: Neuronal viability during excitotoxic (NMDA) stress, intracellular ATP; format: cell-based, FVB/N mice; conditions: 10 uM compound; NMDA 25 uM or 50 uM, 20 h
Protocol: Cortical neuronal cultures from FVB mice were prepared as described (Metzler et al, J Neurosci (2007) 27(9):2298). […] The measurement of intracellular ATP was used as an assessment of neuronal viability as described previously (Uribe et al, HMG 2012. 21(9):1954-67) using the Cell-titer glo kit from Promega according to manufacturer's instructions.
It has been previously been shown in HD animal models that neuronal cells expressing mHTT have an increased vulnerability to excitotoxic stress (Graham et al. 2005. Neurobiol. Dis. 21:444-455) and that this may be mediated by caspase 6 (Graham et al. 2006. Cell 6(13):1179-1191 and Uribe et al HMG 2012; 21(9):1954-67). The link between NMDA-induced toxicity and other neurodegenerative diseases has been reviewed by Lipton et al., Nat Rev Drug Discovery 2006. 5:160-170. Therefore, the effect of the presence of the PG-3d compound on the ability of neuronal cells to survive during excitotoxic stress via its ability to inhibit the caspase-6 enzyme was investigated.

[1] = target: T1, human caspase 6 lacking the pro-domain (Homo sapiens, UniProt P55212); experiment: Lamin A cleavage in HEK 293 cells overexpressing caspase-6 (Mesoscale ELISA); format: cell-based; set-up: The transfected DNA encodes amino acids 24-293 of the human caspase 6 enzyme with a C-terminal DDK tag; DDK-tag (C); expressed in transfected cells; host or cells: HEK 293; conditions: 24 hr incubation; cleaved lamin A quantified; read-out: HEK intracellular IC50
T1 sequence (P55212 with tags, fused parts or gaps): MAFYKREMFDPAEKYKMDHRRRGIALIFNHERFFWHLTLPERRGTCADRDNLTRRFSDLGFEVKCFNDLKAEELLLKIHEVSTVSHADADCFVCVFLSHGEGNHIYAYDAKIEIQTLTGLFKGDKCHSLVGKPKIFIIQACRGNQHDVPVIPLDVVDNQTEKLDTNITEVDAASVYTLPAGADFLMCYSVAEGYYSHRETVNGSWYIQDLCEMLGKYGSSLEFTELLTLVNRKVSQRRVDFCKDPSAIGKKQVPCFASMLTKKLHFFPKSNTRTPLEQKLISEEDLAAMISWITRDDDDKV
Protocol: HEK 293 cells were grown in DMEM supplemented with 10% fetal bovine serum, 1%/penicillin/streptomycin and 0.5% glutamine. Transfections were performed using the Fugene reagent (Roche) according to manufacturer's instructions. The transfected DNA encodes amino acids 24-293 of the human caspase 6 enzyme with a C-terminal DDK tag under the control of a CMV promoter (vector pCMVSport6) (SEQ ID NO: 2). The transfected HEK 293 were used to measure the intracellular activity of caspase-6 as evidenced by cleavage of the lamin substrate (described below).
The quantitative assessment of intracellular lamin cleavage in caspase-6 transfected HEK 293 cells was done as described previously (Ehrnhoefer et al. PLoS One, 2011. 6(11):e27680) Briefly, HEK 293 cell lysates were adjusted to 1 μg protein/μl in lysis buffer, diluted to 0.2 μg/μl in PBS and 5 μl were added to a Multi-Array high-bind 96 well plate (Mesoscale discovery). After incubation at room temperature for 1 h, the wells were blocked by adding 150 μl 5% BSA in PBS, followed by further incubation at room temperature for 1 h. Wells were then washed 3× with 150 μl PBS+0.05% Tween, and 25 μl antibody mix was added (Cell signaling #2036 at 1:100 dilution, Mesoscale discovery goat-anti-rabbit sulfo-tag at 1:500 dilution in PBS with 1% BSA). After lh incubation at room temperature, the wells were washed 3× with 150 μl PBS+0.05% Tween, and 150 μl/well 2× reading reagent (Mesoscale discovery) was added. The plate was read on a Sector imager 6000 (Mesoscale discovery).
The PG3 analog compounds were also tested for their ability to inhibit caspase-6 within cultured cells. HEK 293 cells were transfected with human caspase 6 lacking the pro-domain and were incubated with increasing concentrations of the PG3 analogs. After a 24 hr incubation, the excess compound was washed away, the cells were lysed and the amount of cleaved lamin A protein was quantified by the Mesoscale ELISA method.

[2] = target: T1, human caspase 6 lacking the pro-domain; experiment: Intracellular Htt cleavage by Western blot in co-transfected COS-7 cells; format: cell-based; set-up: DDK-tag (C); expressed in transfected cells; host or cells: COS-7
Protocol: COS-7 cells were co-transfected with the 4c htt fragment and the human caspase-6 lacking the pro-domain which leads to fast autoactivation of the caspase-6 enzyme and the generation of the 586 aa Htt cleavage fragment. The co-transfected cells were exposed to either 10 uM of the PG3d compound, 3 uM of the Q-VD-Oph pan-caspase inhibitor or were left untreated. Non-transfected cells were included as a negative control and the purified 586 aa Htt fragment was included as a positive control. Cell lysates were subjected to Western blotting and the 586AA fragment generated intracellularly was detected with Htt antibody 2166 (Millipore). Caspase-6 expression and activation was assessed by Western blotting using antibody HD91 (Ehrnhoefer et al, HMG, 2014. 23(3):717-29).
COS-7 cells were co-transfected with the 4c htt fragment and the human caspase-6 lacking the pro-domain which leads to fast autoactivation of the caspase-6 enzyme and the generation of the 586 aa Htt cleavage fragment. […] Non-transfected cells were included as a negative control and the purified 586 aa Htt fragment was included as a positive control. […] The cell lysates were also assayed for the levels of active caspase 6 enzyme as shown in the lower panel of FIG. 5B.

SMILES: O=c1oc(C#Cc2ccccc2)nc(O)c1Cc1ccccc1 [PG-3d, 5-Benzyl-4-hydroxy-2-(phenylethynyl)-6H-1,3-oxazin-6-one]
- cell viability (intracellular ATP) (primary cortical neurons): significant improvement
- IC50 [1]: 2600 nM
- level of active caspase 6 enzyme ([2]; 10 uM compound): decreased amount of active enzyme
- generation of the 586 aa Htt cleavage fragment ([2]; 10 uM compound vs untreated cells): significant reduction
